In patent publication US12186332B2, “Methods for overcoming WNT/beta-catenin anti-cancer resistance in leukemia stem cells” (STOWERS INSTITUTE FOR MEDICAL RESEARCH, priority 2019, dated 2025):

Experiments:
Format in all cases: cell-based
[1] = biological target: T1, Akt:β-catenin interaction (EGFP-AKT and mCherry-β-catenin) (Mus musculus, UniProt Q02248); assay: FRET assay (acceptor photobleaching), 293T cells
T1 construct: host or cells: 293T cells
T1 sequence (Q02248 1-781): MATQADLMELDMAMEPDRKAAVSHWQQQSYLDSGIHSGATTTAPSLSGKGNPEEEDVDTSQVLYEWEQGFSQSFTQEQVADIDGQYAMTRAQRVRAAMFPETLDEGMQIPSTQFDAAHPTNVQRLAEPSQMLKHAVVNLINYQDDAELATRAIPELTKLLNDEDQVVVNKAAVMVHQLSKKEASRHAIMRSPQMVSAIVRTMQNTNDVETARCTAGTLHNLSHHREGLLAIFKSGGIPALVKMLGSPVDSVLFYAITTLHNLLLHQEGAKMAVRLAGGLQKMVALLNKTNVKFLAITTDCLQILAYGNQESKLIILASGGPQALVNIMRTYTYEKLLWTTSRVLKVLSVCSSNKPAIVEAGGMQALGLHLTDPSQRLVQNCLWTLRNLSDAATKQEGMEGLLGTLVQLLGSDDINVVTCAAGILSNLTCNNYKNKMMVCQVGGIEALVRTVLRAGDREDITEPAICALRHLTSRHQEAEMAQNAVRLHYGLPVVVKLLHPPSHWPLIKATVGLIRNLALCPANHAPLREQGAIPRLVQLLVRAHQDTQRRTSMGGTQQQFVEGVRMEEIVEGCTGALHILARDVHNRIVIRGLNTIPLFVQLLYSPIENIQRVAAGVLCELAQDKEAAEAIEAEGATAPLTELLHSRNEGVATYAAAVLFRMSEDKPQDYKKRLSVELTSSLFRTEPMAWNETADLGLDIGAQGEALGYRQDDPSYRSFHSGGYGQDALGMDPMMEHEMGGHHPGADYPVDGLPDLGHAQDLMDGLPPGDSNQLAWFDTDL
Description: Cells transfected with EGFP-AKT and mCherry-β-catenin were treated with vehicle or Doxorubicin at the indicated concentrations and FRET efficiency was determined.
FIG. 7C provides the FRET verification between Akt and β-catenin.
FRET measurement was performed by using the acceptor photobleaching method. Briefly, 293T cells were transfected with EGFP-AKT and mCherry-β-catenin (Addgene, #39531, #55001). A Perkin-Elmer Ultraview spinning disc system with a CSU-X1 Yokogawa disc was used for imaging. A 40×1.2 NA Plan-apochromatic objective was used, and emission was collected onto a C9100 Hamamatsu Photonics EM-CCD. EGFP was excited with a 488 nm laser, and emission was collected through a 500-555 nm band pass filter. mCherry was illuminated, and photobleached, with a 561 nm laser. Emission of mCherry was collected with a 580-650 nm band pass filter. 6 images of EGFP were acquired before and 8 images after bleaching of the mCherry with intense 561 nm light. After subtraction of camera background, the average intensity of EGFP in a region of interest spanning the bleached cell was determined in the 4 images before acceptor bleach (I1), or the 4 images after acceptor bleach (12). FRET efficiency is reported as 1−(I1/I2). Calculations were based on >500 cell images.

[2] = tested on: β-catenin binding of the Cd24a gene locus; assay: ChIP-qPCR in Ctnnb1-3xFlag mouse ES cells; conditions: 4 hours
Description: The Ctnnb1-3×Flag mouse ES cell line was provided by Andrew McMahon (University of Southern California) and routinely passaged and maintained on irradiated MEF feeder in conventional ES cell medium supplemented with […] and […] Hygromycin B. Cells were adapted and expanded to serum free 2i culture for experiments. For serum-free 2i culture, ES cells were cultured without serum in the N2B27 medium: neurobasal medium(Invitrogen 21103-049), DMEM/F12 (Invitrogen 10565-018), 0.5×N2 (Invitrogen 17502-048), 0.5×B27 (Invitrogen 17504044), 1×b-mercaptoethanol(Millipore ES-007-E), 2 mM Lglutamine(Invitrogen 25030081), […] non-essential amino acid(NEAA)(SCT 07600), 0.033% BSA(Invitrogen 15260037), […] CHIRON(Tocris 4423), […] PD03 (SCT72184).
A total of 2×10^7 ES cells were used per ChIP assay. Cells were washed with 1×PBS and crosslinked with 1% paraformaldehyde for 10 min at RT and quenched with 1 ml 2.5M glycine. Cells were washed with cold PBS three times and resuspended in […] lysis buffer (15 mM HEPES at pH 7.5, 140 mM NaCl, 1 mM EDTA, 0.5 mM EGTA, 1% Triton X100, 0.1% sodium deoxycholate, 1% SDS, 0.5% N-lauroylsarcosine). […] ChIP-qPCR was performed with Fast SYBR™ Green Master Mix (Thermo Fisher Scientific 4385612) and analyzed with the Student's t-test.

[3] = tested on: pS^552-β-catenin; assay: Western analysis of compound-treated TOP and FOP cells
Description: TOP and FOP cells were treated with thioguanosine at EC90, EC50 and EC25 derived from FIG. 2A for 48 hours, washed and flash frozen for Western analysis. EC50 data is shown.
TOP and FOP cells were treated with compound 0105375 at EC90, EC50 and EC25 derived from FIG. 2B for 48 hours, washed and flash frozen for Western analysis. EC50 data is shown.
TOP and FOP cells were treated with doxorubicin at EC90, EC50 and EC25 derived from FIG. 2C for 48 hours, washed and flash frozen for Western analysis. EC50 data is shown.

[4] = particularly low concentrations, 48 hours

COc1cccc2c1C(=O)c1c(O)c3c(c(O)c1C2=O)C[C@@](O)(C(=O)CO)C[C@@H]3O[C@H]1C[C@H](N)[C@H](O)[C@H](C)O1 [DXR, doxorubicin]
concentration at which Akt:β-catenin interaction is inhibited [1]: < 1 µM | FRET between EGFP-AKT and mCherry-β-catenin ([1]; versus vehicle treated cells): decreased with increasing concentrations and exposure time | β-catenin binding of the Cd24 promoter region ([2]; high-dose DXR (3 μM)): partially reversed | β-catenin binding of the Cd24 promoter region ([2]; low-dose DXR (30 nM)): essentially abolished | inhibition of pS552-β-catenin relative to pan β-catenin (HTS candidates) [3]: could inhibit pS^552-β-catenin with less effect on pan β-catenin | effect on β-catenin generally [3, 4]: only minimal effect | pS552-β-catenin level [3, 4]: inhibited
